From the NIST ThermoML archive (doi:10.1021/je0601098)

Experiments:
[1] = 298.15 K, 101 kPa, Liquid; for speed of sound: Linear variable-path acoustic interferometer
[2] = mn = molality of the nth substance listed, in mol/kg; settings: 298.15 K, 101 kPa, Liquid; for speed of sound: Linear variable-path acoustic interferometer

CCCCO [butan-1-ol]
[1]
Settings	mass density [kg/m3]	speed of sound [m/s]
–	806.024	1241.6

C1CCOC1 [tetrahydrofuran] + O
[2]
Settings	mass density [kg/m3]	speed of sound [m/s]
m2 = 0	882.056	1280.2
m2 = 0.1301	882.394	1281.2
m2 = 0.1845	882.536	1281.7
m2 = 0.2263	882.674	1282
m2 = 0.244	882.753	1282.4
m2 = 0.3258	882.981	1282.9
m2 = 0.4247	883.242	1283.2
m2 = 0.525	883.543	1283.9
m2 = 0.6245	884.032	1284.6
m2 = 0.7309	884.381	1285.1
m2 = 0.8254	884.726	1286
m2 = 0.9243	885.015	1287
m2 = 1.029	885.427	1288

CO [methanol]
[1]
Settings	mass density [kg/m3]	speed of sound [m/s]
–	786.66	1103.8

C1COCCO1 [1,4-dioxane] + O
[2]
Settings	mass density [kg/m3]	speed of sound [m/s]
m2 = 0	1028.34	1346.3
m2 = 0.07165	1028.35	1347.1
m2 = 0.1214	1028.36	1347.8
m2 = 0.1625	1028.37	1348.4
m2 = 0.2272	1028.39	1349.2
m2 = 0.3262	1028.42	1350
m2 = 0.4214	1028.46	1350.9
m2 = 0.6512	1028.57	1353
m2 = 0.8375	1028.67	1354.8
m2 = 1.022	1028.78	1356.5

C1CCOC1 [tetrahydrofuran]
[1]
Settings	mass density [kg/m3]	speed of sound [m/s]
–	882.056	1280.2

CC#N [acetonitrile]
[1]
Settings	mass density [kg/m3]	speed of sound [m/s]
–	776.389	1281.3

CCCO [propan-1-ol] + O
[2]
Settings	mass density [kg/m3]	speed of sound [m/s]
m2 = 0	799.683	1207
m2 = 0.1627	800.472	1209
m2 = 0.217	800.732	1209.9
m2 = 0.2635	800.961	1210.1
m2 = 0.3129	801.185	1211.5
m2 = 0.4209	801.664	1213
m2 = 0.5137	802.083	1213.4
m2 = 0.6196	802.528	1214.7
m2 = 0.7183	802.982	1215.8
m2 = 0.8205	803.412	1217.2
m2 = 0.9191	803.833	1218.1
m2 = 1.005	804.252	1219.3

C1COCCO1 [1,4-dioxane]
[1]
Settings	mass density [kg/m3]	speed of sound [m/s]
–	1028.34	1346.3

CCCO [propan-1-ol]
[1]
Settings	mass density [kg/m3]	speed of sound [m/s]
–	799.683	1207

CN(C)C=O [dimethylformamide] + O
[2]
Settings	mass density [kg/m3]	speed of sound [m/s]
m2 = 0	944.076	1460.2
m2 = 0.08457	944.384	1461.1
m2 = 0.1304	944.54	1461.8
m2 = 0.1738	944.701	1462.4
m2 = 0.2315	944.826	1463.9
m2 = 0.2762	945.027	1464.1
m2 = 0.3215	945.143	1464.2
m2 = 0.4146	945.584	1465.5
m2 = 0.5189	945.835	1467.4
m2 = 0.6115	946.263	1468.1
m2 = 0.7123	946.49	1469.4
m2 = 0.81	946.853	1470.7
m2 = 0.9044	947.103	1472.3
m2 = 1.001	947.417	1473.3

CCCCO [butan-1-ol] + O
[2]
Settings	mass density [kg/m3]	speed of sound [m/s]
m2 = 0	806.024	1241.6
m2 = 0.1588	806.701	1242.9
m2 = 0.2034	806.906	1243.3
m2 = 0.2526	807.034	1243.2
m2 = 0.3019	807.215	1243.6
m2 = 0.3998	807.558	1244.5
m2 = 0.5007	807.906	1246.2
m2 = 0.6011	808.262	1247
m2 = 0.705	808.615	1248
m2 = 0.8032	808.946	1248.8
m2 = 0.9017	809.283	1249.7

CC#N [acetonitrile] + O
[2]
Settings	mass density [kg/m3]	speed of sound [m/s]
m2 = 0	776.389	1281.3
m2 = 0.1197	776.819	1281.5
m2 = 0.1729	777.019	1282
m2 = 0.2244	777.174	1282.2
m2 = 0.2674	777.435	1282.4
m2 = 0.3192	777.518	1282.2
m2 = 0.4188	777.923	1282.6
m2 = 0.5198	778.218	1283
m2 = 0.621	778.584	1284
m2 = 0.7217	778.921	1284.3
m2 = 0.8212	779.276	1284.7
m2 = 0.9205	779.631	1285.5
m2 = 1.02	779.949	1286.5

CCO [ethanol]
[1]
Settings	mass density [kg/m3]	speed of sound [m/s]
–	785.207	1142.1

CCO [ethanol] + O
[2]
Settings	mass density [kg/m3]	speed of sound [m/s]
m2 = 0	785.207	1142.1
m2 = 0.214	786.407	1144.6
m2 = 0.2705	786.72	1145.9
m2 = 0.3199	786.998	1146.8
m2 = 0.3659	787.262	1148.6
m2 = 0.4543	787.753	1151
m2 = 0.5541	788.3	1153.2
m2 = 0.6437	788.782	1154.8
m2 = 0.743	789.321	1156.4
m2 = 0.8349	789.775	1157.7
m2 = 0.9264	790.279	1159.5
m2 = 1.019	790.734	1160.1

CN(C)C=O [dimethylformamide]
[1]
Settings	mass density [kg/m3]	speed of sound [m/s]
–	944.076	1460.2

CO [methanol] + O
[2]
Settings	mass density [kg/m3]	speed of sound [m/s]
m2 = 0	786.66	1103.8
m2 = 0.1566	787.454	1106
m2 = 0.2143	787.724	1106.2
m2 = 0.2641	788.016	1106.2
m2 = 0.3211	788.308	1107.2
m2 = 0.4121	788.789	1107.9
m2 = 0.5085	789.27	1109.8
m2 = 0.6159	789.834	1112.6
m2 = 0.7089	790.308	1113.4
m2 = 0.8074	790.823	1114.4
m2 = 0.9136	791.368	1117.1
m2 = 1.018	791.86	1118
